Patent US20160221965A1, “DISUBSTITUTED TRIFLUOROMETHYL PYRIMIDINONES AND THEIR USE” (BAYER PHARMA AKTIENGESELLSCHAFT, priority 2013, published 2016)

Tests used:
Assay type in all cases: cell-based
murine CCR2 [1] = target: T1, murine CCR2 (Mus musculus, UniProt P51683); experiment: Functional β-arrestin recruiting test with human MCP-1 (B-2a); settings: U2OS β-arrestin cell line transfected with murine CCR2; agonist human MCP-1 at EC50 (about 3 nM)
T1 construct: host or cells: U2OS β-arrestin cell line
Experimental: (§1) The antagonistic action of test substances on CCR2 was determined in a β-arrestin test. The PathHunter β-arrestin GPCR test system (DiscoveRx Corporation, Ltd.) is a cell-based functional method for detecting binding of β-arrestin to an activated receptor. The molecular basis is a β-galactosidase complementation measured by the enzymatic conversion of a chemiluminescent substrate. The test cell used was a U2OS β-arrestin cell line transfected with murine CCR2 (93-0543C3, DiscoveRx Corporation, Ltd.).
(§2) The test substances were dissolved in dimethyl sulphoxide (DMSO) at a concentration of 10 mM and serially diluted with DMSO in steps of 1:3.16 for a 10-point dose/activity analysis. According to the desired test concentrations, the substances were pre-diluted in Tyrode with 2 mM CaCl2 and 0.05% BSA.
(§3) The cells, cultivated in MEM Eagle (supplemented with 10% FCS, 50 U/ml of penicillin, 50 μg/ml of streptomycin, 250 μg/ml of hygromycin and 500 μg/ml of geniticin), were sown at 2000 cells/25 μl in 384 well, μCLEAR/black cell culture plates from Greiner (#781092) and incubated at 37° C. for 24 h. The sowing medium consisted of Opti-MEM (supplemented with 1% FCS, 50 U/ml of penicillin and 50 μg/ml of streptomycin). The cells were pre-incubated for 10 min with 10 μl of the test substances diluted in buffer, and 10 μl of agonist solution [human MCP-1 (PeproTech, #300-04) in Tyrode with 0.05% BSA] were then added. The human MCP-1 was employed at the concentration which corresponds to the EC50 which had been determined in a preliminary test (usually about 3 nM). After 90 min of incubation at 37° C., the solution was removed, and recruitment of β-arrestin to CCR2 was detected with the aid of the PathHunter detection reagent (93-001, DiscoveRx Corporation, Ltd.) according to the instructions of the manufacturer. Luminescence was measured after an incubation time of 60 min using a proprietary luminescence imaging measuring instrument. The molar concentration of the test substance which caused 50% inhibition of the MCP-1 effect (IC50) was determined using a 4-parameter logistic function (Hill function).

murine CCR2 [2] = target: T1, murine CCR2; experiment: Functional β-arrestin recruiting test with murine MCP-1 (B-2b); settings: U2OS β-arrestin cell line transfected with murine CCR2; agonist murine MCP-1
Experimental: as §1, §2, §3
The test was carried out in a manner identical to that described above under B-2a, but using murine MCP-1 (PeproTech, #250-10) as agonist.

human CCR2 = target: T2, human CCR2 (Homo sapiens, UniProt P41597); experiment: Functional Ca2+ release test (B-1); settings: Chem-1 cell line transfected with human CCR2, inhibition of MCP-1 effect, MCP-1 at EC50 (about 5 nM), Fluo-4
T2 construct: host or cells: Chem-1 cell line
T2 sequence (P41597 1-360 isoform P41597-2): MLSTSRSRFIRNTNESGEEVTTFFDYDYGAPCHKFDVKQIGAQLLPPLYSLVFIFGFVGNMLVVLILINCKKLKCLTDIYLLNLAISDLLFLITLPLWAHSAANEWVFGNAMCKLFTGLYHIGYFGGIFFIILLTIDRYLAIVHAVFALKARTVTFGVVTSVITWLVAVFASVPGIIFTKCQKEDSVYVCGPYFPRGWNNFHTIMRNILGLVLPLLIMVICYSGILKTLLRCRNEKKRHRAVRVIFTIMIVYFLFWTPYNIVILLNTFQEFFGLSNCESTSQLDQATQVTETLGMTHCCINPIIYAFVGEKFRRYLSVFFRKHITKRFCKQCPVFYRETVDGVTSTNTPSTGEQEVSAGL
Experimental: The antagonistic action of test substances on CCR2 was determined in a functional Ca^2+ release test. Binding of CCL2/MCP-1 to CCR2 leads to a change in the conformation of the receptor resulting in Gi/Gq protein activation and intracellular signal cascade. This involves, inter alia, an intracellular Ca^2+ release. The test cell used was a Chem-1 cell line transfected with human CCR2 (ChemiSCREEN™ CCR2B Calcium-Optimized FLIPR Cell Line, Merck Millipore).
as §2
The cells, cultivated in DMEM high glucose [supplemented with 10% FCS, 1 mM pyruvate, 15 mM HEPES, 500 μg/ml geniticin and non-essential amino acids (NEAA)], were sown at 5000 cells/25 μl in 384 well, μCLEAR/black cell culture plates from Greiner (#781092) and incubated at 37° C. for 24 h. The sowing medium consisted of DMEM high glucose [supplemented with 5% FCS, 1 mM pyruvate, 15 mM HEPES, 50 U/ml penicillin, 50 μg/ml streptomycin and non-essential amino acids (NEAA)]. The medium was then removed and the cells were charged for 60 min at 37° C. with Fluo-4 dye [25 μl Tyrode with 3 μM Fluo-4 AM (1 mM DMSO stock solution), 0.4 mg/ml Brilliant Black, 2.5 mM probenicid, 0.03% Pluronic F-127]. The cells were pre-incubated for 10 min with 10 μl of the test substances diluted in buffer, and 20 μl of agonist solution (MCP-1 in Tyrode with 0.05% BSA) were then added. MCP-1 was employed at the concentration which corresponds to the EC50 which had been determined in a preliminary test (usually about 5 nM). Ca^2+ release was monitored over a period of 120 s in 1 s increments in a proprietary fluorescence imaging reader. The molar concentration of the test substance which caused 50% inhibition of the MCP-1 effect (IC50) was determined using a 4-parameter logistic function (Hill function).

T1 sequence (P51683 whole entry): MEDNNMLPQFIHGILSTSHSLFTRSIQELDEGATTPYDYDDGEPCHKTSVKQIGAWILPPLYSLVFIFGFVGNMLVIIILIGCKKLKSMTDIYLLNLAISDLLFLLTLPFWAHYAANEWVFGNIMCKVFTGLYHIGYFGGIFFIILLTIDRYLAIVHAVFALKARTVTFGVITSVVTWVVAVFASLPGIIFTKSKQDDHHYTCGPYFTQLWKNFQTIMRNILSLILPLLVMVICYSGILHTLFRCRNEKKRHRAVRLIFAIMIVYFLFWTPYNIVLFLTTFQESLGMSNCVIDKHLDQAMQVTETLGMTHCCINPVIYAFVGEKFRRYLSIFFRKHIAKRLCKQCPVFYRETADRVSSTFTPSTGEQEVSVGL

IC50 (murine CCR2 [1]) [nM]	IC50 (murine CCR2 [2]) [nM]	IC50 (human CCR2) [nM]	SMILES
200	312	19	Nc1nc(C(F)(F)F)c(Cc2ccc(Cl)c(Cl)c2)c(=O)[nH]1 [Example 1, 2-Amino-5-(3,4-dichlorobenzyl)-6-(trifluoromethyl)pyrimidin-4(3H)-one]
23	69	3.3	Nc1nc(C(F)(F)F)c(Oc2ccc(Cl)c(C(F)(F)F)c2)c(=O)[nH]1 [Example 2, 2-Amino-5-[4-chloro-3-(trifluoromethyl)phenoxy]-6-(trifluoromethyl)pyrimidin-4(3H)-one]
49	280	3.4	Nc1nc(C(F)(F)F)c(Oc2ccc(Cl)c(Cl)c2)c(=O)[nH]1 [Example 3, 2-Amino-5-(3,4-dichlorophenoxy)-6-(trifluoromethyl)pyrimidin-4(3H)-one]
–	2200	326	Nc1nc(C(F)(F)F)c(S(=O)(=O)c2ccc(Cl)c(Cl)c2)c(=O)[nH]1 [Example 63]
–	2700	13	CCNc1nc(C(F)(F)F)c(Oc2ccc(Cl)c(Cl)c2)c(=O)[nH]1 [Example 64, 5-(3,4-Dichlorophenoxy)-2-(ethylamino)-6-(trifluoromethyl)pyrimidin-4(3H)-one]
–	1630	121	CC(C)Nc1nc(C(F)(F)F)c(Oc2ccc(Cl)c(Cl)c2)c(=O)[nH]1 [Example 65]
–	506	9.8	CNc1nc(C(F)(F)F)c(Oc2ccc(Cl)c(Cl)c2)c(=O)[nH]1 [Example 66]
–	523	32	O=c1[nH]c(C2CCC2)nc(C(F)(F)F)c1Oc1ccc(Cl)c(Cl)c1 [Example 69]
–	3710	45	CC(c1ccc(Cl)c(Cl)c1)c1c(C(F)(F)F)nc(N)[nH]c1=O (stereo not shown) [Example 70]
–	1720	2.4	Cc1ccc(Oc2c(C(F)(F)F)nc(N)[nH]c2=O)cc1Cl [Example 71]
–	545	1.5	Cc1cc(Oc2c(C(F)(F)F)nc(N)[nH]c2=O)ccc1Cl [Example 72]
–	2310	38	Nc1nc(C(F)(F)F)c(Oc2ccc(Cl)cc2)c(=O)[nH]1 [Example 73]
–	4160	50	Nc1nc(C(F)(F)F)c(Oc2ccc(C(F)(F)F)cc2)c(=O)[nH]1 [Example 74]
–	9490	21	Nc1nc(C(F)(F)F)c(Oc2cccc(C(F)(F)F)c2)c(=O)[nH]1 [Example 75]
